Test results: US10022374B2, “Certain protein kinase inhibitors” (Shanghai Fochon Pharmaceutical Co., Ltd., priority 2013, dated 2018)

Tests used:
[1] = tested on: A-375 cells; assay: Inhibition of cell proliferation (MTS), A-375 cells; format: cell-based; settings: Homo sapiens, A-375, 72 h, A-375 cells, 3000 cells/well, 72 h, MTS, absorbance 490 nm; read-out: A375 IC50
Method: (§1) MTS testing kit was purchased from Promega. The DMEM, RPMI-1640 and Fetal bovine serum were purchased from Gibco. Dimethyl sulfoxide (DMSO) was purchased from Sigma.
(§2) To investigate whether a compound is able to inhibit the activity of MEK in cells, a mechanism-based assay using A-375 and HT-29 cell was developed. In this assay, inhibition of MEK was detected by the inhibition of A-375 and HT-29 cells proliferation. A-375 and HT-29 cells were cultured in culture flasks to 40-80% confluence respectively in DMEM and RPMI-1640 plus 10% fetal bovine serum. Cells were collected and plated onto 96-well plates at desired cell density (A-375: 3000 cells/well; HT-29: 5000 cells/well). Plates were incubated overnight at 37° C., with 5% CO2 to adhere. Compounds were added to the plates. The final compound concentrations were […], 12.35, 4.12, 1.37, 0.46 and 0.15 nM, respectively. Place plates at 37° C., with 5% CO2 for 72 h. 10 μl MTS were added to each well and incubate the plates for exactly 2 hours. Absorbance was measured at 490 nm. […] was calculated using GraphPad Prism 5.0.

[2] = tested on: HT-29 cells; assay: Inhibition of cell proliferation (MTS), HT-29 cells; format: cell-based; settings: Homo sapiens, HT-29, 72 h, HT-29 cells, 5000 cells/well, 72 h, MTS, absorbance 490 nm; read-out: HT29 IC50
Method: as §1, §2

| Compound | IC50 [1] | IC50 [2] |
| --- | --- | --- |
| Cn1c(=O)c(F)c(Nc2ccc(I)cc2F)c2c(=O)n(C3CC3)nc(-c3cccc(N4CCCS4(=O)=O)c3)c21 [Example 55, 6-cyclopropyl-8-(3-(1,1-dioxidoisothiazolidin-2-yl)phenyl)-3-fluoro-4-((2-fluoro-4-iodophenyl)amino)-1-methylpyrido[2,3-d]pyridazine-2,5(1H,6H)-dione] | 8.8 nM | 18.7 nM |
| COCCn1nc(-c2cccc(NS(=O)(=O)C3CC3)c2)c2c(c(Nc3ccc(I)cc3F)c(F)c(=O)n2C)c1=O [Example 18, N-(3-(3-fluoro-4-(2-fluoro-4-iodophenylamino)-6-(2-methoxyethyl)-1-methyl-2,5-dioxo-1,2,5,6-tetrahydropyrido[2,3-d]pyridazin-8-yl)phenyl)cyclopropanesulfonamide] | 30.2 nM | 23.6 nM |
| CN(c1cccc(-c2nn(C)c(=O)c3c(Nc4ccc(I)cc4F)c(F)c(=O)n(C)c23)c1)S(C)(=O)=O [Example 50, N-(3-(3-fluoro-4-((2-fluoro-4-iodophenyl)amino)-1,6-dimethyl-2,5-dioxo-1,2,5,6-tetrahydropyrido[2,3-d]pyridazin-8-yl)phenyl)-N-methylmethanesulfonamide] | 1.5 nM | 5.3 nM |
| CC(C)C(=O)Nc1cccc(-c2nn(C3CC3)c(=O)c3c(Nc4ccc(I)cc4F)c(F)c(=O)n(C)c23)c1 [Example 3, N-(3-(6-cyclopropyl-3-fluoro-4-(2-fluoro-4-iodophenylamino)-1-methyl-2,5-dioxo-1,2,5,6-tetrahydropyrido[2,3-d]pyridazin-8-yl)phenyl)isobutyramide] | 15.3 nM | 41.4 nM |
| C=CCn1nc(-c2cccc(NS(=O)(=O)C(C)C)c2)c2c(c(Nc3ccc(I)cc3F)c(F)c(=O)n2C)c1=O [Example 33, N-(3-(6-allyl-3-fluoro-4-(2-fluoro-4-iodophenylamino)-1-methyl-2,5-dioxo-1,2,5,6-tetrahydropyrido[2,3-d]pyridazin-8-yl)phenyl)propane-2-sulfonamide] | 12.6 nM | 7.2 nM |
| CC(C)n1nc(-c2cccc(NS(=O)(=O)C(C)C)c2)c2c(c(Nc3ccc(I)cc3F)c(F)c(=O)n2C)c1=O [Example 15, N-(3-(3-fluoro-4-(2-fluoro-4-iodophenylamino)-6-isopropyl-1-methyl-2,5-dioxo-1,2,5,6-tetrahydropyrido[2,3-d]pyridazin-8-yl)phenyl)propane-2-sulfonamide] | 34.9 nM | 152 nM |
| CC(C)n1nc(-c2cccc(NC(=O)C3CC3)c2)c2c(c(Nc3ccc(I)cc3F)c(F)c(=O)n2C)c1=O [Example 12, N-(3-(3-fluoro-4-(2-fluoro-4-iodophenylamino)-6-isopropyl-1-methyl-2,5-dioxo-1,2,5,6-tetrahydropyrido[2,3-d]pyridazin-8-yl)phenyl)cyclopropanecarboxamide] | 199 nM | 192 nM |
| CCS(=O)(=O)Nc1cccc(-c2nn(C3CC3)c(=O)c3c(Nc4ccc(I)cc4F)c(F)c(=O)n(C)c23)c1 [Example 6, N-(3-(6-cyclopropyl-3-fluoro-4-(2-fluoro-4-iodophenylamino)-1-methyl-2,5-dioxo-1,2,5,6-tetrahydropyrido[2,3-d]pyridazin-8-yl)phenyl)ethanesulfonamide] | 4.8 nM | 6.4 nM |
| CCn1nc(-c2cccc(NS(C)(=O)=O)c2)c2c(c(Nc3ccc(I)cc3F)c(F)c(=O)n2C)c1=O [Example 25, N-(3-(6-ethyl-3-fluoro-4-(2-fluoro-4-iodophenylamino)-1-methyl-2,5-dioxo-1,2,5,6-tetrahydropyrido[2,3-d]pyridazin-8-yl)phenyl)methanesulfonamide] | < 1 nM | < 1 nM |
| Cn1c(=O)c(F)c(Nc2ccc(I)cc2F)c2c(=O)n(C3CC3)nc(-c3cccc(N4CCCC4=O)c3)c21 [Example 53, 6-cyclopropyl-3-fluoro-4-((2-fluoro-4-iodophenyl)amino)-1-methyl-8-(3-(2-oxopyrrolidin-1-yl)phenyl)pyrido[2,3-d]pyridazine-2,5(1H,6H)-dione] | 7.8 nM | 19.1 nM |
| Cn1nc(-c2cccc(N3CCCS3(=O)=O)c2)c2c(c(Nc3ccc(I)cc3F)c(F)c(=O)n2C)c1=O [Example 56, 8-(3-(1,1-dioxidoisothiazolidin-2-yl)phenyl)-3-fluoro-4-((2-fluoro-4-iodophenyl)amino)-1,6-dimethylpyrido[2,3-d]pyridazine-2,5(1H,6H)-dione] | 9.3 nM | 14.1 nM |
| CCC(=O)Nc1cccc(-c2nn(CC(O)CO)c(=O)c3c(Nc4ccc(I)cc4F)c(F)c(=O)n(C)c23)c1 (centres unmarked) [Example 41, N-(3-(6-(2,3-dihydroxypropyl)-3-fluoro-4-(2-fluoro-4-iodophenylamino)-1-methyl-2,5-dioxo-1,2,5,6-tetrahydropyrido[2,3-d]pyridazin-8-yl)phenyl)propionamide] | 399 nM | 315 nM |
| Cn1c(=O)c(F)c(Nc2ccc(I)cc2F)c2c(=O)n(CC(O)CO)nc(-c3cccc(NS(=O)(=O)C4CC4)c3)c21 (centres unmarked) [Example 46, N-(3-(6-(2,3-dihydroxypropyl)-3-fluoro-4-(2-fluoro-4-iodophenylamino)-1-methyl-2,5-dioxo-1,2,5,6-tetrahydropyrido[2,3-d]pyridazin-8-yl)phenyl)cyclopropanesulfonamide] | 68.9 nM | 24.2 nM |
| C=CCn1nc(-c2cccc(NC(=O)C3CC3)c2)c2c(c(Nc3ccc(I)cc3F)c(F)c(=O)n2C)c1=O [Example 30, N-(3-(6-allyl-3-fluoro-4-(2-fluoro-4-iodophenylamino)-1-methyl-2,5-dioxo-1,2,5,6-tetrahydropyrido[2,3-d]pyridazin-8-yl)phenyl)cyclopropanecarboxamide] | 80.7 nM | 76.7 nM |
| CN(c1cccc(-c2nn(C)c(=O)c3c(Nc4ccc(I)cc4F)c(F)c(=O)n(C)c23)c1)S(=O)(=O)C1CC1 [Example 52, N-(3-(3-fluoro-4-((2-fluoro-4-iodophenyl)amino)-1,6-dimethyl-2,5-dioxo-1,2,5,6-tetrahydropyrido[2,3-d]pyridazin-8-yl)phenyl)-N-methylcyclopropanesulfonamide] | 5.7 nM | 7.8 nM |
| CC(C)C(=O)Nc1cccc(-c2nn(C(C)C)c(=O)c3c(Nc4ccc(I)cc4F)c(F)c(=O)n(C)c23)c1 [Example 11, N-(3-(3-fluoro-4-(2-fluoro-4-iodophenylamino)-6-isopropyl-1-methyl-2,5-dioxo-1,2,5,6-tetrahydropyrido[2,3-d]pyridazin-8-yl)phenyl)isobutyramide] | 198 nM | 180 nM |
| Cn1nc(-c2cccc(NS(=O)(=O)C3CC3)c2)c2c(c(Nc3ccc(I)cc3F)c(F)c(=O)n2C)c1=O [Example 23, N-(3-(3-fluoro-4-(2-fluoro-4-iodophenylamino)-1,6-dimethyl-2,5-dioxo-1,2,5,6-tetrahydropyrido[2,3-d]pyridazin-8-yl)phenyl)cyclopropanesulfonamide] | < 1 nM | < 1 nM |
| C=CCn1nc(-c2cccc(NS(=O)(=O)C3CC3)c2)c2c(c(Nc3ccc(I)cc3F)c(F)c(=O)n2C)c1=O [Example 8, N-(3-(6-allyl-3-fluoro-4-(2-fluoro-4-iodophenylamino)-1-methyl-2,5-dioxo-1,2,5,6-tetrahydropyrido[2,3-d]pyridazin-8-yl)phenyl)cyclopropanesulfonamide] | 5.4 nM | 5.4 nM |
| Cn1c(=O)c(F)c(Nc2ccc(I)cc2F)c2c(=O)n(CC(O)CO)nc(-c3cccc(NC(=O)C4CC4)c3)c21 (centres unmarked) [Example 42, N-(3-(6-(2,3-dihydroxypropyl)-3-fluoro-4-(2-fluoro-4-iodophenylamino)-1-methyl-2,5-dioxo-1,2,5,6-tetrahydropyrido[2,3-d]pyridazin-8-yl)phenyl)cyclopropanecarboxamide] | 180 nM | 112 nM |
| CCCn1nc(-c2cccc(NS(=O)(=O)C3CC3)c2)c2c(c(Nc3ccc(I)cc3F)c(F)c(=O)n2C)c1=O [Example 17, N-(3-(3-fluoro-4-(2-fluoro-4-iodophenylamino)-1-methyl-2,5-dioxo-6-propyl-1,2,5,6-tetrahydropyrido[2,3-d]pyridazin-8-yl)phenyl)cyclopropanesulfonamide] | 12.8 nM | 21.6 nM |
| Cn1c(=O)c(F)c(Nc2ccc(I)cc2F)c2c(=O)n(CCF)nc(-c3cccc(NS(=O)(=O)C4CC4)c3)c21 [Example 19, N-(3-(3-fluoro-4-(2-fluoro-4-iodophenylamino)-6-(2-fluoroethyl)-1-methyl-2,5-dioxo-1,2,5,6-tetrahydropyrido[2,3-d]pyridazin-8-yl)phenyl)cyclopropanesulfonamide] | 2.4 nM | 4.2 nM |
| CCn1nc(-c2cccc(NS(=O)(=O)C3CC3)c2)c2c(c(Nc3ccc(I)cc3F)c(F)c(=O)n2C)c1=O [Example 27, N-(3-(6-ethyl-3-fluoro-4-(2-fluoro-4-iodophenylamino)-1-methyl-2,5-dioxo-1,2,5,6-tetrahydropyrido[2,3-d]pyridazin-8-yl)phenyl)cyclopropanesulfonamide] | < 1 nM | < 1 nM |
